Results reported in patent US20200253926A1, “THERAPEUTIC COMBINATIONS” (SUPERSALUS, INC., priority 2019, published 2020).
Where a name gives a salt, the structure may show the parent alone.

Tests used:
aortic rings = conditions: cited from earlier work
H2S levels = conditions: compared to vehicle treated animals; cited from earlier work
NO2 levels = conditions: compared with vehicle treated animals; cited from earlier work
physchem = assay type: physicochemical; conditions: for solubility: thermodynamic from solid
Protocol: The hygroscopicity of zofenopril sodium material A was tested using DVS.

[1] = Hygroscopicity by dynamic vapor sorption (DVS); assay type: physicochemical
Protocol: Zofenopril calcium was slurried in ACN. Two molar equivalents of HCl were added. The materials were allowed to slurry overnight. […] On DSC this material has an onset at 162° C. This is in contrast to DSC results for zofenopril calcium which has an onset of 250.3° C. […] On the sorption step up to 65% RH, the material gained 1.2% weight. Above this RH, the material gained an additional 36.9% weight. […] Most of the weight was lost on desorption with significant hysteresis.
Nicorandil free base was dissolved in acetone resulting in a clear solution. A molar equivalent of HCl was added stepwise following which there nucleation with rosettes of aciculars and blades that were birefringent. The resulting material was recovered and shown to be nicorandil HCl form A. The XRPD pattern for this sample is shown in FIG. 16. Based on the single crystal structure, nicorandil hydrochloride form A is anhydrous and contains one nicorandil cation and one chloride anion in the asymmetric unit. On the sorption step up to 75% RH, the material gained 0.5% weight. Above that it gained an additional 52% weight. Most of the weight was lost on desoption with significant hysteresis. The material recovered from DVS was shown by XRPD to be form A (FIG. 18). Solubility of nicorandil HCl form A was tested and shown to be >48 mg/mL which was the limit of the test.

portal vein rings = experiment: In-vitro rat portal vein ring relaxation (isometric method); assay type: cell-based, Wistar rats; design: Emax: dose or concentration left out as unconfirmed
Protocol: The portal vein was recovered from Wistar rats weighing approximately 450 gm, and divided into vein segments. Segments were placed in a bath containing approximately 10 mL of Krebs buffer at pH˜7.4. The vehicle used for treatment was 0.2% DMSO. Portal vein rings were pre-contracted and incubated for 60 min at 32° C. Ring relaxation was measured after 10 minutes of exposure to the test compound(s). Chromakalim served as the positive control for the experiment. Ring relaxation was measured by the isometric method as gram changes. Relaxation of the vein rings in this assay are a function of both KATP channel agonization and NO response. In prior published work, about half of the relaxation response could be attributable to KATP channel agonization and half to a NO-mediated response. Each assay was run in duplicate.
Eight combinations of concentration of zofenopril and nicorandil were tested in the assay. These were 80 and 40 μM nicorandil, 100 and 50 μM zofenopril, 12.5 μM zofenopril+10 μM nicorandil, 12.5 μM zofenopril+20 μM nicorandil, 12.5 μM zofenopril+40 μM nicorandil, and 25 μM zofenopril+40 μM nicorandil.

[2] = tested on: human umbilical artery segments; conditions: cited from earlier work
[3] = following a 5 mg dose; expected value; cited from earlier work
isolated rat hearts = conditions: cited from earlier work
arterial rings = conditions: 100 μM zofenopril; cited from earlier work

CC1(C)Oc2ccc(C#N)cc2C(N2CCCC2=O)C1O (stereo not drawn) [Chromakalim, chromakalim]
relaxation of aortic rings (aortic rings): near maximal relaxation

CCOC(=O)[C@H](CCc1ccccc1)N[C@@H](C)C(=O)N1[C@H](C(=O)O)C[C@@H]2CCC[C@@H]21 [Ramipril, ramipril]
plasma and myocardial tissue H2S levels (H2S levels): did not elevate | plasma and myocardial tissue NO2 levels (NO2 levels): virtually no effect

O=C(NCCO[N+](=O)[O-])c1cccnc1 [nicorandil HCl form A, nicorandil hydrochloride]
solubility (physchem): > 48 mg/mL | DVS additional weight gain above 75% RH ([1]; above 75% RH): 52 % weight | DVS weight gain on the sorption step up to 75% RH ([1]; up to 75% RH): 0.5 % weight

O=C(NCCO[N+](=O)[O-])c1cccnc1 [nicorandil]
relaxation response (portal vein rings; 40 μM nicorandil): maximal relaxation response | relaxation, % of maximum ([2]; 30 μM nicorandil): about 60% | relaxation ([2]; 100 μM nicorandil): maximal relaxation | Cmax [3]: 15 to 16 µM

C[C@H](CSC(=O)c1ccccc1)C(=O)N1C[C@@H](Sc2ccccc2)C[C@H]1C(=O)O [zofenopril sodium material A, zofenopril sodium]
pH of the solution at the end of the solubility (physchem; pH 10): 10 | solubility (physchem; pH 10, water): > 48 mg/mL

C[C@H](CSC(=O)c1ccccc1)C(=O)N1C[C@@H](Sc2ccccc2)C[C@H]1C(=O)O [zofenopril]
plasma and myocardial tissue H2S levels (H2S levels): directly elevating plasma and myocardial tissue H2S levels | relaxation, % of the positive control (portal vein rings; 50 μM zofenopril): 60% | relaxation, % of the positive control (portal vein rings; 100 μM zofenopril, positive control chromakalim, 10 min exposure): about 85% | Emax (portal vein rings; Rattus norvegicus, read-out: relaxation, % of the maximum response for zofenopril): ~70% | pre-ischemic coronary flow or contractile function (isolated rat hearts): little effect | reperfusion end diastolic pressure (EDP) and lactate dehydrogenase (LDH) release (isolated rat hearts; reversed by glyburide and 5-HD): significantly reduced | reperfusion function (isolated rat hearts; reversed by glyburide and 5-HD): significantly improved | maximal response, relaxation of aortic rings (aortic rings): 89% | relaxation response (arterial rings): maximal relaxation response | plasma and myocardial tissue NO2 levels (NO2 levels): significantly increased

zofenopril calcium chloride [Zofenopril calcium chloride form A]
DVS additional weight gain above 65% RH ([1]; above 65% RH, equilibration timed out at all steps): 36.9 % weight | DVS weight gain on the sorption step up to 65% RH ([1]; up to 65% RH): 1.2 % weight
